Entries after “also recorded” stand apart in the source; their conditions may differ. Read-outs that look alike come from different tables or passages of the source.

By half-life is commonly meant the time needed for the level to fall by half in the phase considered.

Data set [1] has as its system Mononuclear cells from patients with sickle cell disease or thalassemia trait. Nature of the data set: Erythroid colony (BFU-E) cultures in methylcellulose. The format is cell-based, human. The note with it: 0.2-0.5 mM, optimal growth factors; for % Increase over control: BFU-E. The procedure: Mononuclear cells from patients with sickle cell disease or thalassemia trait were isolated on Ficoll Hypague, washed, and cultured in methylcellulose media with optimal concentrations of hematopoietic growth factors IL-3, GM-CSF, Stem Cell Factor, IL6, 3 U/ml Eiythropoietin, insulin, bovine serum albumin, and 0.2-0.5 mM concentrations of test compounds of derivatives of cinnamic acid and hydrocinnamic acid. […] The following illustrates some representative cultures: […]

In the next data set the test system is K562 cells. Nature of the data set: Treatment of K562 cells and analysis of globin mRNA by primer extension. The format is cell-based, human. The following applies: for fold induction at 1000 µM: Homo sapiens, K562, 72 h, read-out: increase in γ-globin mRNA over constitutive levels in untreated control K562 cells; for stimulating γ globin compared to control cells (ranking in words) / Radioactivity Alpha Globin (α) mRNA / Radioactivity Fetal Globin (γ) mRNA / γ/α: K562 cells; for pattern of globin gene stimulation in K562 cells: α and γ globin mRNA; for Radioactivity Alpha Globin (α) mRNA / Radioactivity Fetal Globin (γ) mRNA: phosphorimager; for γ/α: ratio of globin mRNA radioactivity. The procedure: K562 cells kindly provided by Dr. George Atweh were cultured with 10% fetal bovine serum (Sigma, St. Louis, Mo.) and RPMI media (Grand Island Biological Company, Grand Island, N.Y.) in a humidified atmosphere with 5% CO2/95% air. Compounds were tested at a final concentration of 1 mM at neutral pH and included butyric acid, phenoxyacetic acid, dimethylbutric acid, alpha-methylhydrocionamic acid, 2,3, and 4-methoxyhydrocinnamic acid, dihydrocinnamic acid, methoxycinnamic acid, methoxyacetic acid, phenylpropionic acid, amino hydrocinnamic acid, DL β- and DL-βamino-n-butyric acid, cinnamic acid, and 2 methylhydrocinnamic acid (Aldrich Chemical Company, St. Louis, Mo.). Additional compounds studied included dimethylhydroxy acetic acid, dimethylpropionic acid, dimethylphenoxyacetic acid, and dimethylmethoxyacetic acid. After three days of culture with these agents, mRNA was purified and α, β, and γ globin mRNA was analyzed by primer extension using oligonucleotide primers and quantitation on a PhosphoImager as previously described.

In a further data set the test system is 32D cells. The experiment in a line: Proliferation studies using 32D cells at low IL-3. The format is cell-based, murine. The following applies: 0.5 U/ml IL-3, 1 mM; listed as butyrate. The procedure: 32D cells were cultured in RPMI media with 10% fetal bovine serum (Sigma, St. Louis, Mo.), […] glutamine (GIBCO), and murine IL3 (20 U/ml) (Biosource International). Growth factor controls used included the standard concentration of IL-3 required for proliferation of these cells (25 U/ml) and a 50-fold lower concentration (0.5 U/ml), and erythropoietin (3 U/ml) or G-CSF ( U/ml), (Amgen, Thousand Oaks, Calif.). The test compounds were added at final concentrations of 1 mM. As a cell density of 2.5−10×10^5 is necessary for growth of this cell line, this density was maintained by passing the cells at three day intervals or by concentrating the cells when apoptosis occurred. Proportions of cells which were viable or apoptotic, and the fraction of cells in each part of the cell cycle was assessed by incubating the cells with Trypan blue and enumeration, and with propidium iodide incubation and FACScan analysis as previously described.
The effects of the representative compounds which have been synthesized or selected for resistance to beta oxidative metabolism and glucuronidation in stimulating γ globin gene expression in a human erythroid-like cell line and for their effects on cell growth utilizing a multi-lineage murine hematopoietic cell line, 32D. This cell line is dependent on high concentrations of IL-3 for growth. […]

Data set [2] concerns mice transgenic for a human beta globin locus YAC containing a silenced gamma globin gene. Nature of the data set: In vivo experiments in mice transgenic for the human beta globin gene locus. As for the experimental part:
Three prototype compounds, methylhydrocinnamic acid (MHCA), phenoxyacetic acid (PAA), and dimethylbutyric acid PMB), were administered at doses from 100 to 250 mg/kg in two daily doses by intraperitoneal injection to mice transgenic for a human beta globin locus YAC containing a silenced gamma globin gene. Reticulocytes, newly synthesized red blood cells, were counted daily and non-alpha globin in MRNA was analyzed by Rnase protection. Only 50 microliters of blood were removed daily for testing. A 5 to 10-fold increase in reticulocytes and a 1.7-2.4 fold increase in gamma globin mRNA was observed within one week of therapy with the three protype compounds. In contrast, control mice to which normal saline was administered, with the same degree of phlebotomy for testing, had no significant changes in reticulocytes or globin in mRNA.

The next data set has as its system cell viability. Nature of the data set: DNA fragmentation assays (cell viability). Type of data set: cell-based. An excerpt:
Normal cell viability, the viability of an untransformed or uninfected cell, can be determined from analyzing the effects of the composition on one or more biological processes of the cell. Detrimental interference with one or more of these cellular processes becomes significant when the process becomes abnormal. Examples of quantitatable and qualifiable biological processes include the processes of cell division, protein synthesis, nucleic acid (DNA or RNA) synthesis, nucleic acid (principally DNA) fragmentation and apoptosis. Others processes include specific enzyme activities, the activities of the cellular transportation systems such as the transportation of amino acids by system A (neutral), system B (acidic) or system C (basic), and the expression of a cell surface protein. […] Abnormal cell division, for example, can be mitosis which occurs too rapidly, as in a malignancy, or unstably, resulting in programmed cell death or apoptosis, detected by increased DNA degradation. The determination of abnormal cell viability can be made on comparison with untreated control cells. […] Increased cell viability can be determined by those of ordinary skill in the art using, for example, DNA fragmentation analysis. […] Determinations of increased or decreased viability can also be concluded from an analysis of the results of multiple different assays. Where multiple tests provide conflicting results, accurate conclusions can still be drawn by those of ordinary skill based upon the cell type, the correctness or correlation of the tests with actual conditions and the type of composition.

Data set [3] relates to system A transport of amino acids. Nature of the data set: System A transport of amino acids. Type of data set: cell-based. An excerpt: Normal cell viability, the viability of an untransformed or uninfected cell, can be determined from analyzing the effects of the composition on one or more biological processes of the cell. Detrimental interference with one or more of these cellular processes becomes significant when the process becomes abnormal. Examples of quantitatable and qualifiable biological processes include the processes of cell division, protein synthesis, nucleic acid (DNA or RNA) synthesis, nucleic acid (principally DNA) fragmentation and apoptosis. Others processes include specific enzyme activities, the activities of the cellular transportation systems such as the transportation of amino acids by system A (neutral), system B (acidic) or system C (basic), and the expression of a cell surface protein. […] Abnormal cell division, for example, can be mitosis which occurs too rapidly, as in a malignancy, or unstably, resulting in programmed cell death or apoptosis, detected by increased DNA degradation. The determination of abnormal cell viability can be made on comparison with untreated control cells. Compositions preferably increase normal cell viability. Increased cell viability can be determined by those of ordinary skill in the art using, for example, DNA fragmentation analysis. […]

The nature of the next data set: in vivo. The note with it: monkey, po.
The subject of data set [4] is c-myb, c-myc, actin, and histone H3. Nature of the data set: Northern blots of growth related genes in 32D cells. Type of data set: cell-based, murine. The following applies: low IL-3, 1 mM, Northern blot. The procedure:
Cell proliferation stimulation is transgenic mice, baboons, human cell culture, and a murine multi-lineage cell line by the active compounds, genes whose expression is increased early in cell proliferation induced by hematopoietic growth factors such as IL-3 and erythropoietin were examined. RNA was extracted from 32D cells treated with the compounds for one day and for 11 days. Northern blots were prepared with probes for the early growth related genes c-myb and c-myc and beta actin and histone H3 were used as controls. Increased expression of c-myb occurs transiently, and early, when growth is induced by erythropoietin and IL-3.
The first lane is from cells cultured in no IL-3, lane 2 in 25 U/ml murine IL3 and lanes 3-18 have low IL-3 concentration (0.5 U/ml) plus test compounds. […] All compounds were tested here at 1 mM. […] 20 ug of total RNA from each sample were subjected to Northern blot analysis using specific probes for c-myb, c-myc, actin, and histone H3. One day and 11-day samples from the same treated cells were quantitated by PhosphoImager.

The mark [5] stands for this setting: primer extension, 1 mM, three days of culture, FIG. 1.

Turning to `COc1ccc(C=CC(=O)O)cc1` [4 Methoxycinnamic acid], in data set [1], the “Mean BFU-E/culture 4 cultures averaged (per 0.2 million cells)” value turned out to be 191 and the “% Increase over control” value is listed as 8.5%.

Turning to `CCCC(=O)O` [Butyric acid, butyric acid, reference compound], in the data set with K562 cells (setting [5]), the fold induction at 1000 µM came to 2. Moreover, the “stimulating γ globin compared to control cells (ranking in words)” value in the data set with K562 cells (1 mM) was “most active”. Besides, the “pattern of globin gene stimulation in K562 cells” value (shortened to “pattern”) in the data set with K562 cells is “stimulated expression of both α and γ globin MRNA”. In addition, the “effect on 32D cells with low IL-3” value with 32D cells was “decreased cell proliferation and cell death; also recorded: Cells die”.

Turning to `O=C(O)COc1ccccc1` [PAA, phenoxyacetic acid], in the data set on K562 cells, the fold induction at 1000 µM fell in the range of 2.4 to 26; the “pattern” value was “stimulated expression of both α and γ globin MRNA”. In addition, in the data set on K562 cells (1 mM), the “stimulating γ globin compared to control cells (ranking in words)” value is “most active”, the “Radioactivity Alpha Globin (α) mRNA” value was determined as 507148, the “Radioactivity Fetal Globin (γ) mRNA” value amounted to 2755891 and the γ/α was 5.4. The “Reticulocytes (fold increase)” value in data set [2] (100 to 250 mg/kg in two daily doses, intraperitoneal, within one week) is reported as 2.5 to 7 fold. Moreover, in the data set with cell viability, the “cell viability / DNA fragmentation” value is on record as “reduce DNA fragmentation”. Also, in data set [3], the “system A transport of amino acids” value was “do not significantly alter”. The molecule also gave a half-life in “in vivo” of 6.5 h.

`NC(CC(=O)O)c1ccccc1` (stereo not drawn) [ST 30, β-aminohydrocinnamic acid]: the c-myb induced in data set [4] was 2 fold.

With `COc1ccccc1C=CC(=O)O` [ST 32, 2-methoxycinnamic acid], the fold induction at 1000 µM with K562 cells (setting [5]) lay within 2.4 to 26. In the data set on K562 cells (1 mM), the “stimulating γ globin compared to control cells (ranking in words)” value is reported as “most active”, the “Radioactivity Alpha Globin (α) mRNA” value was 36751, the “Radioactivity Fetal Globin (γ) mRNA” value is 957146 and the γ/α was 26.0.

Turning to `Cc1ccccc1CCC(=O)O` [ST 33, 2 methyl hydrocinnamic acid], the fold induction at 1000 µM in the data set on K562 cells (setting [5]) lay in the range of 2.4 to 26. Further, in the data set with K562 cells (1 mM), the “stimulating γ globin compared to control cells (ranking in words)” value is on record as “most active”, the “Radioactivity Alpha Globin (α) mRNA” value is listed as 89473, the “Radioactivity Fetal Globin (γ) mRNA” value worked out at 1388899 and the γ/α stood at 15.5. Also, in data set [1], the “Mean BFU-E/culture 4 cultures averaged (per 0.2 million cells)” value is 212 and the “% Increase over control” value is on record as 20.5%.

Take `COc1ccccc1/C=C\C(=O)O` [ST 34, cis-2-methoxycinnamic acid]: the fold induction at 1000 µM in the data set with K562 cells (setting [5]) lay within 2.4 to 26. In addition, in the data set with K562 cells (1 mM), the “Radioactivity Alpha Globin (α) mRNA” value is 105452, the “Radioactivity Fetal Globin (γ) mRNA” value turned out to be 2255627 and the γ/α is 21.4. Besides, the “pattern” value in the data set with K562 cells is listed as “decreased expression of α globin”.

With `COc1ccc(CC(=O)O)cc1OC` [ST 37, 3,4 dimethoxy phenyl acetic acid], the fold induction at 1000 µM in the data set on K562 cells (setting [5]) was in the range of 2.4 to 26. For the same molecule, in the data set with K562 cells (1 mM), the “Radioactivity Alpha Globin (α) mRNA” value is listed as 106875, the “Radioactivity Fetal Globin (γ) mRNA” value was 1206529 and the γ/α was 11.3.

For `COc1ccc(CCC(=O)O)cc1OC` [ST 38, 3-3,4-dimethoxy phenyl propionic acid], in the data set with K562 cells (1 mM), the “Radioactivity Alpha Globin (α) mRNA” value is 191985, the “Radioactivity Fetal Globin (γ) mRNA” value was 1858358 and the γ/α was 9.7.

Consider `COc1ccc(OC)c(CC(=O)O)c1` [ST 40, 2,5 {dimethoxy phenyl} acetic acid], for which, in the data set on K562 cells (1 mM), the “Radioactivity Alpha Globin (α) mRNA” value came out at 85941, the “Radioactivity Fetal Globin (γ) mRNA” value is on record as 1240100 and the γ/α is recorded as 14.4.

With `COc1cc(C=CC(=O)O)cc(OC)c1O` [ST 44, 3,5 dimethoxy 4-hydroxy cinnamic acid], the fold induction at 1000 µM in the data set on K562 cells (setting [5]) was in the range of 2.4 to 26. In data set [1], the “Mean BFU-E/culture 4 cultures averaged (per 0.2 million cells)” value stood at 215 and the “% Increase over control” value turned out to be 11%.

With `O=C(O)/C=C/c1ccccc1` [ST 47, transcinnamic acid], the fold induction at 1000 µM in the data set with K562 cells (setting [5]) lay within 2.4 to 26. For the same molecule, in data set [1], the “Mean BFU-E/culture 4 cultures averaged (per 0.2 million cells)” value was 322 and the “% Increase over control” value is 18%.

Take `CCC(N)C(=O)O` (stereo not drawn) [alpha amino-n-butyric acid, reference compound]: the “inducibility of gamma (fetal) globin in the transgenic mice” value in data set [2] (mouse, in vivo) was “has not been readily inducible”.

Consider `CCCC(=O)OCC` [butyric acid ethyl ester], for which, in the data set on cell viability, the “cell viability / DNA fragmentation” value is given as “reduce DNA fragmentation”.

In the case of `CC(C)C(N)=O` [isobutyramide, reference compound], the “cell viability / DNA fragmentation” value in the data set with cell viability was “decrease cell viability”.

The values are drawn from US6451334B2, “Compositions and administration of compositions for the treatment of blood disorders” (priority 1997, dated 2002).
